Source: patent US5712300A, “Hydroxamic acid derivatives useful for the treatment of diseases related to connective tissue degradation” (priority 1997, dated 1998)

Experiments:
Assay type in all cases: biochemical
Stromelysin = Stromelysin (Homo sapiens, UniProt P08254); test: MMP inhibition by particle concentration fluorescence technique (stromelysin); details: pH 7.5; 15 min enzyme preincubation; substrate 1-3 h at room temperature; read-out: MMP Inhibition Constants, Stromelysin Ki
Method in brief: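 Fluorescein- and biotin-labelled substrate captured on avidin particles after reaction; intact, uncleaved substrate retains fluorescence, so signal rises with inhibition. Activated enzyme incubated with two-fold serial compound dilutions 15 minutes at room temperature.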

Collagenase = target: T1, Collagenase (Homo sapiens, UniProt P03956); test: MMP inhibition by particle concentration fluorescence technique (collagenase); details: pH 7.5; 15 min enzyme preincubation; substrate 1-3 h at room temperature; read-out: MMP Inhibition Constants, Collagenase Ki
T1 sequence (P03956 100-469): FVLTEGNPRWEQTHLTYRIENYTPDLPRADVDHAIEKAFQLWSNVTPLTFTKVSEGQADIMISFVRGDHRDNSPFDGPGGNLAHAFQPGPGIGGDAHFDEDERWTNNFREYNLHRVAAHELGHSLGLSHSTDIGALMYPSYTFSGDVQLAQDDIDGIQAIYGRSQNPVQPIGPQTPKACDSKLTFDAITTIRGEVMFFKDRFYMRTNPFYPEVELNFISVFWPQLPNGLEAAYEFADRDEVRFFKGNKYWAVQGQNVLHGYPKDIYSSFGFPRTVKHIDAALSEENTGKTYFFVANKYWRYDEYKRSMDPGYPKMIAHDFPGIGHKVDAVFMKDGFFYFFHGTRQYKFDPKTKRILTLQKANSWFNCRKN
Method in brief: (§1)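 Compound serially diluted two-fold in 50 mM Tris-HCl pH 7.5, 150 mM NaCl, preincubated 15 min with activated enzyme at room temperature. Fluorescein/biotin-tagged substrate then added for 1-3 hours in the dark. Intact substrate captured on avidin-coated particles; fluorescence signal indicates inhibition.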

Gelatinase = test: MMP inhibition by particle concentration fluorescence technique (gelatinase); details: pH 7.5; 15 min enzyme preincubation; substrate 1-3 h at room temperature; read-out: MMP Inhibition Constants, Gelatinase Ki
Method in brief: as §1

Sequence of Stromelysin (P08254 100-477): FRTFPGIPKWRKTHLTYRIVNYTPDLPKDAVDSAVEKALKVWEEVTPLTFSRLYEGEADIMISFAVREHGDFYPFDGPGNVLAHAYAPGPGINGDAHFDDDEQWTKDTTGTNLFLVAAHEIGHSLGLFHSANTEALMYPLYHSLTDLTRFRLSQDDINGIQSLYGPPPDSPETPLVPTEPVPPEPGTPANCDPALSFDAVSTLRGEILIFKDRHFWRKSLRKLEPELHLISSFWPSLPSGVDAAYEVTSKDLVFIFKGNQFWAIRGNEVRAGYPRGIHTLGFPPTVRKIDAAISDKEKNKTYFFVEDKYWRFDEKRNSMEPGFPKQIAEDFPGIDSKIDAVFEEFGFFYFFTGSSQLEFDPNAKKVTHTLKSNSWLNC

`CC(C)C[C@@]1(CC(=O)NO)CCN([C@@H](CCc2ccccc2)C(=O)NCc2ccccc2)C1=O` [Example 48, [S-(R*,R*)]-N^3 -Hydroxy-3-(2-methylpropyl)-2-oxo-α^1-(2-phenylethyl)-N^1-(phenylmethyl)-1,3-pyrrolidinediacetamide] showed a Ki (Stromelysin) of 385 nM, a Ki (Collagenase) of 72 nM and a Ki (Gelatinase) of 160 nM.
`CC(C)C[C@@H](C(=O)Nc1ccccn1)N1CC[C@](CC(=O)NO)(CC(C)C)C1=O` [Example 49, [S-(R*,R*)]-N^3 -Hydroxy-α^1,3-bis(2-methylpropyl)-2-oxo-N^1-2-pyridinyl-1,3-pyrrolidinediacetamide] gave a Ki (Stromelysin) of 138 nM, a Ki (Collagenase) of 85 nM and a Ki (Gelatinase) of 61 nM.
`CNC(=O)[C@H](C1CCCCC1)N1CC[C@](CC(=O)NO)(CC(C)C)C1=O` [Example 50, [S-(R*,R*)]-α^1 -Cyclohexyl-N^3-hydroxy-N^1-methyl-3-(2-methylpropyl)-2-oxo-1,3-pyrrolidinediacetamide] gave a Ki (Stromelysin) of 283 nM, a Ki (Collagenase) of 6.06 nM and a Ki (Gelatinase) of 17 nM.
In the case of `CC(C)C[C@@]1(CC(=O)NO)CCN([C@H](C(=O)Nc2ccccn2)C2CCCCC2)C1=O` [Example 51, [S-(R*,R*)]-α^1 -Cyclohexyl-N^3-hydroxy-3-(2-methylpropyl)-2-oxo-N^1-2-pyridinyl-1,3-pyrrolidinediacetamide], the Ki (Stromelysin) is reported as 84 nM, the Ki (Collagenase) is reported as 42.2 nM and the Ki (Gelatinase) is reported as 23 nM.
Work on `CNC(=O)[C@H](Cc1ccccc1)N1CC[C@](CC(=O)NO)(CC2CCCC2)C1=O` [Example 52, [S-(R*,R*)]-3-(Cyclopentylmethyl)-N^3-hydroxy-N^1-methyl-2-oxo-α^1-(phenylmethyl)-1,3-pyrrolidinediacetamide] yielded a Ki (Stromelysin) of 187 nM, a Ki (Collagenase) of 1.3 nM and a Ki (Gelatinase) of 1.1 nM.
Work on `CNC(=O)[C@H](Cc1ccccc1)N1CC[C@@](CC(C)C)([C@H](CCNC(=O)c2ccccc2)C(=O)NO)C1=O` [Example 53, [3S-[1(R*),3R*(R*)]]-α^3-[2-(Benzoylamino)ethyl]-N^3-hydroxy-N^1-methyl-3-(2-methylpropyl)-2-oxo-α^1-(phenylmethyl)-1,3-pyrrolidinediacetamide] yielded a Ki (Stromelysin) of 10.5 nM, a Ki (Collagenase) of 0.69 nM and a Ki (Gelatinase) of 1.06 nM.
In the case of `CC(C)C[C@@]1(CC(=O)NO)CCN([C@@H](Cc2ccccc2)C(=O)NCCN2CCOCC2)C1=O` [Example 54, [S-(R*,R*)]-N^3 -Hydroxy-3-(2-methylpropyl)-N^1-[2-(4-morpholinyl)ethyl]-2-oxo-α^1-(phenylmethyl)-1,3-pyrrolidinediacetamide], the Ki (Stromelysin) is reported as 700 nM, the Ki (Collagenase) is reported as 76 nM and the Ki (Gelatinase) is reported as 70 nM.
`CC(C)C[C@@]1(CC(=O)NO)CCN([C@@H](Cc2ccccc2)C(=O)N2CCOCC2)C1=O` [Example 55, [S-(R*,R*)]-N-Hydroxy-3-(2-methylpropyl)-1-[2-(4-morpholinyl)-2-oxo-1-(phenylmethyl)ethyl]-2-oxo-3-pyrrolidineacetamide] gave a Ki (Stromelysin) of 1900 nM, a Ki (Collagenase) of 750 nM and a Ki (Gelatinase) of 211 nM.
`CC(C)C[C@@]1(CC(=O)NO)CCN([C@@H](Cc2ccccc2)C(=O)Nc2ccccn2)C1=O` [Example 57, [S-(R*,R*)]-N^3 -Hydroxy-3-(2-methylpropyl)-2-oxo-α^1-(phenylmethyl)-N^1-2-pyridinyl-1,3-pyrrolidinediacetamide] gave a Ki (Stromelysin) of 75 nM, a Ki (Collagenase) of 12 nM and a Ki (Gelatinase) of 9.5 nM.
For `CC(C)C[C@@]1(CC(=O)NO)CCN([C@H](C(=O)Nc2ccc(F)cc2)C2CCCCC2)C1=O` [Example 60, [S-(R*,R*)]-α^1 -Cyclohexyl-N^1-(4-fluorophenyl)-N^3-hydroxy-3-(2-methylpropyl)-2-oxo-1,3-pyrrolidinediacetamide], the Ki (Stromelysin) was 19 nM, the Ki (Collagenase) was 18 nM and the Ki (Gelatinase) was 12.3 nM.
`CCCOc1ccc2c(c1)C(=O)N(CCC(C(=O)NO)C1(CC(C)C)CCN(CCc3ccccc3)C1=O)C2=O` (stereo not drawn) [Example 62, N-Hydroxy-3-(2-methylpropyl)-2-oxo-1-(2-phenylethyl)-α-[2-(5-propyloxy-1,3-dihydro-1,3-dioxo-2H-isoindol-2-yl)ethyl]-3-pyrrolidineacetamide] gave a Ki (Stromelysin) of 369 nM, a Ki (Collagenase) of 55000 nM and a Ki (Gelatinase) of 310 nM.
Work on `CC(C)C[C@@]1([C@@H](CCN2C(=O)c3ccc(F)cc3C2=O)C(=O)NO)CCN(CCc2ccccc2)C1=O` [Example 63, [R-(R*,S*)]-5-Fluoro-1,3-dihydro-N-hydroxy-α-[3-(2-methylpropyl)-2-oxo-1-(2-phenylethyl)-3-pyrrolidinyl]-1,3-dioxo-2H-isoindole-2-butanamide] yielded a Ki (Stromelysin) of 58 nM, a Ki (Collagenase) of 1500 nM and a Ki (Gelatinase) of 32 nM.
Work on `CC(C)CC1(C(CCN2C(=O)c3cc(F)c(F)cc3C2=O)C(=O)NO)CCN(CCc2ccccc2)C1=O` (stereo not drawn) [Example 64, α-[2-(5,6-Difluoro-1,3-dihydro-1,3-dioxo-2H-isoindol-2-yl)ethyl]-N-hydroxy-3-(2-methylpropyl)-2-oxo-1-(2-phenylethyl)-3-pyrrolidineacetamide] yielded a Ki (Stromelysin) of 107 nM, a Ki (Collagenase) of 735 nM and a Ki (Gelatinase) of 49 nM.
For `CC(C)C[C@@]1([C@@H](CCNC(=O)c2cccc(F)c2)C(=O)NO)CCN(CCc2ccccc2)C1=O` [Example 74, [R-(R*,S*)-α-[2-[(3-Fluorobenzoyl)amino]ethyl]-N-hydroxy-3-(2-methylpropyl)-2-oxo-1-(2-phenylethyl)-3-pyrrolidineacetamide], the Ki (Stromelysin) was 52 nM, the Ki (Collagenase) was 26 nM and the Ki (Gelatinase) was 21 nM.
With `CC(C)C[C@@]1([C@@H](CCN2Cc3ccc(F)cc3C2=O)C(=O)NO)CCN(CCc2ccccc2)C1=O` [Example 87, [R-(R*,S*)]-6-Fluoro-1,3-dihydro-N-hydroxy-α-[3-(2-methylpropyl)-2-oxo-1-(2-phenylethyl)-3-pyrrolidinyl]-1-oxo-2H-isoindole-2-butanamide] the Ki (Stromelysin) was 91 nM, the Ki (Collagenase) was 230 nM and the Ki (Gelatinase) was 4.88 nM.
`CC(C)C[C@@]1([C@@H](CCN2Cc3cc(F)ccc3C2=O)C(=O)NO)CCN(CCc2ccccc2)C1=O` [Example 88, [R-(R*,S*)]-5-Fluoro-1,3-dihydro-N-hydroxy-α-[3-(2-methylpropyl)-2-oxo-1-(2-phenylethyl)-3-pyrrolidinyl]-1-oxo-2H-isoindole-2-butanamide] was tested, and the Ki (Stromelysin) was 288 nM, the Ki (Collagenase) was 326 nM and the Ki (Gelatinase) was 62 nM.
With `O=C(NCC[C@@H](C(=O)NO)[C@]1(CCCO)CCN(CCc2ccccc2)C1=O)c1cccc(F)c1` [Example 96, [R-(R*,S*)]-α-[2-[(3-Fluorebenzoyl)amino]ethyl]-N-hydroxy-3-(3-hydroxypropyl)-2-oxo-1-(2-phenylethyl)-3-pyrrolidineacetamide] the Ki (Stromelysin) was 8.7 nM, the Ki (Collagenase) was 12.7 nM and the Ki (Gelatinase) was 0.98 nM.
